Test results: patent US5086071A, “2,5,6,7-tetranor-4,8-inter-m-phenylene PGI2 derivatives” (Toray Industries, Inc., priority 1989, dated 1992)
≈ marks a conversion by molar mass, not a printed value.

Legend:
[1] = system: platelet aggregation; assay: Inhibiting Effect of Platelet Aggregation (ADP-induced, human platelet rich plasma); assay type: cell-based; settings: human PRP, ADP 10 μM, test compound added one minute prior to ADP, read-out: ED50 (text: IC50), inhibition of platelet aggregation
Method: Blood collected from human intermediate cubital vein was centrifuged at 800 rpm for 10 minutes. The supernatant was taken out as platelet rich plasma (PRP). Aliquots of PRP were dispensed into test tubes to which […] (ADP) was added (final concentration: 10 μM) to induce platelet aggregation. The extent of platelet aggregation is determined by an aggregometer (Rika Denki, Tokyo) as a change of turbidity. The test compound is added in one minute prior to the addition pf ADP. IC50 values are calculated as a concentration of test compound which inhibits platelet aggregation by 50%.

[2] = system: stomach; assay: Gastric Cytoprotection (0.2N NaOH-induced stomach lesion, ulcer index); assay type: in vivo; settings: test compound 30 minutes before oral 0.2N NaOH; killed one hour later; read-out: ED50 (dose which reduces an ulcer index by 50% of that in a control animal)
Method: Gastric cytoprotection was measured according to the method of A. Robert, et al. (Gastroenterlogy 77 (3), 443 (1979).
Thirty minutes later after the test compound was administered, the animals were given orally 0.2N NaOH and killed one hour later by chloroform anesthesia.
The stomach was taken out, fixed with 5% formalin solution, and opened along greater curvature.
The length of the lesion brought about in the stomach is measured and expressed in terms of the ulcer index. Gastric cytoprotection activity is expressed in Table 1 below as an ED50 value (dose in μg/Kg which reduces an ulcer index by 50% of that in a control animal (ulcer index: 100%)).

[3] = system: gastric acid secretion; assay: Gastric Acid Secretion Inhibition (pentagastrin-stimulated, perfused stomach); assay type: in vivo, rat (male SD rats); settings: intravenous; pentagastrin 0.05 μg/Kg/min; relative to PGE2 set as 1
Method: Male SD rats were operated by means of ventrotomy under urethane anesthesia. A double cannula was inserted into the fundus of the rat. The stomach lumen was continuously perfused with a physiological saline solution. The perfusate was drawn into the pH meter to continuously measure its pH (M. Ghosh, H. Schild, Br. J. Pharmacol. 13, 54 (1958)).
Pentagastrin was infused continuously at a rate of 0.05 μg/Kg/min. to stimulate gastric acid secretion.
The test compounds were injected intravenuously into the femoral vein when the pH reached a steady state at about 4.0.
Gastric acid secretion inhibition activity is calculated from the area made by pH augmentation against time.
The potency of the compounds is compared and expressed in terms of PGE2 ratio where PGE2 is set as 1.

[4] = neutral aqueous solution; cited from earlier work
[5] = cited from earlier work

## CCCCC[C@H](O)/C=C/[C@@H]1[C@H]2c3cccc(/C=C/C(=O)O)c3O[C@H]2C[C@H]1O [Compound 24, d-(3E)-2,5,6,7-tetranor-3,4-didehydro-4,8-inter-m-phenylene PGI2]
[1]
  IC50: 0.4 ng/mL (≈ 1.07 nM)
[2]
  ED50: 21.4 µg/kg
[3]
  Gastric Antisecretory Activity, Relative Potency Ratio [PGE2 = 1.0]: 23

## CCCCC(C)[C@H](O)/C=C/[C@@H]1[C@H]2c3cccc(/C=C/C(=O)O)c3O[C@H]2C[C@H]1O (stereo partly drawn) [Compound 28, d-(3E)-16-methyl-2,5,6,7-tetranor-3,4-didehydro-4,8-inter-m-phenylene PGI2]
[1]
  IC50: 1.6 ng/mL (≈ 4.14 nM)
[2]
  ED50: 0.26 µg/kg
[3]
  Gastric Antisecretory Activity, Relative Potency Ratio [PGE2 = 1.0]: 55

## CCCC[C@H](C)C[C@H](O)/C=C/[C@@H]1[C@H]2c3cccc(/C=C/C(=O)O)c3O[C@H]2C[C@H]1O [Compound 31, d-(3E, 17S)-17-methyl-20a-homo-2,5,6,7-tetranor-3,4-didehydro-4,8-inter-m-phenylene PGI2]
[1]
  IC50: 0.14 ng/mL (≈ 0.35 nM)

## CCCCC(C)(C)[C@H](O)/C=C/[C@@H]1[C@H]2c3cccc(/C=C/C(=O)O)c3O[C@H]2C[C@H]1O [Compound 34, d-(3E)-16,16-dimethyl-2,5,6,7-tetranor-3,4-didehydro-4,8-inter-m-phenylene PGI2]
[1]
  IC50: 45 ng/mL (≈ 112 nM)
[2]
  ED50: 1.6 µg/kg
[3]
  Gastric Antisecretory Activity, Relative Potency Ratio [PGE2 = 1.0]: 36

## O=C(O)/C=C/c1cccc2c1O[C@H]1C[C@@H](O)[C@H](/C=C/[C@@H](O)c3ccccc3)[C@@H]21 [Compound 37, d-(3E)-15-phenyl-2,5,6,7,16,17,18,19,20-nonanor-3,4-didehydro-4,8-inter-m-phenylene PGI2]
[1]
  IC50: 0.56 ng/mL (≈ 1.48 nM)
[2]
  ED50: 0.83 µg/kg
[3]
  Gastric Antisecretory Activity, Relative Potency Ratio [PGE2 = 1.0]: 83

## O=C(O)/C=C/c1cccc2c1O[C@H]1C[C@@H](O)[C@H](/C=C/[C@@H](O)c3ccc(Cl)cc3)[C@@H]21 [Compound 40, d-(3E)-15-(p-chlorophenyl)-2,5,6,7,16,17,18,19,20-nonanor-3,4-didehydro-4,8-inter-m-phenylene PGI2]
[2]
  ED50: 0.46 µg/kg

## O=C(O)/C=C/c1cccc2c1O[C@H]1C[C@@H](O)[C@H](/C=C/[C@@H](O)c3cccc(F)c3)[C@@H]21 [Compound 43, d-(3E)-15-(m-fluorophenyl)-2,5,6,7,16,17,18,19,20-nonanor-3,4-didehydro-4,8-inter-m-phenylene PGI2]
[2]
  ED50: 0.39 µg/kg

## CC(C)(c1ccccc1)[C@H](O)/C=C/[C@@H]1[C@H]2c3cccc(/C=C/C(=O)O)c3O[C@H]2C[C@H]1O [Compound 51, d-(3E)-16-methyl-16-phenyl-2,5,6,7,18,19,20-heptanor-3,4-didehydro-4,8-inter-m-phenylene PGI2]
[1]
  IC50: 1800 ng/mL (≈ 4280 nM)

## O=C(O)/C=C/c1cccc2c1O[C@H]1C[C@@H](O)[C@H](/C=C/[C@@H](O)C3CCCC3)[C@@H]21 [Compound 57, d-(3E)-15-cyclopentyl-2,5,6,7,16,17,18,19,20-nonanor-3,4-didehydro-4,8-inter-m-phenylene PGI2]
[2]
  ED50: 5.07 µg/kg

## O=C(O)/C=C/c1cccc2c1O[C@H]1C[C@@H](O)[C@H](/C=C/[C@@H](O)C3CCCCC3)[C@@H]21 [Compound 60, d-(3E)-15-cyclohexyl-2,5,6,7,16,17,18,19,20-nonanor-3,4-didehydro-4,8-inter-m-phenylene PGI2]
[1]
  IC50: 0.35 ng/mL (≈ 0.91 nM)
[2]
  ED50: 0.88 µg/kg
[3]
  Gastric Antisecretory Activity, Relative Potency Ratio [PGE2 = 1.0]: 14

## CCCOC[C@H](O)/C=C/[C@@H]1[C@H]2c3cccc(/C=C/C(=O)O)c3O[C@H]2C[C@H]1O [Compound 69, d-(3E)-2,5,6,7-tetranor-17-oxa-3,4-didehydro-4,8-inter-m-phenylene PGI2]
[1]
  IC50: 0.58 ng/mL (≈ 1.55 nM)
[2]
  ED50: 6.5 µg/kg
[3]
  Gastric Antisecretory Activity, Relative Potency Ratio [PGE2 = 1.0]: 10

## CCOCC(C)(C)[C@H](O)/C=C/[C@@H]1[C@H]2c3cccc(/C=C/C(=O)O)c3O[C@H]2C[C@H]1O [Compound 72, d-(3E)-16,16-dimethyl-2,5,6,7-tetranor-18-oxa-3,4-didehydro-4,8-inter-m-phenylene PGI2]
[1]
  IC50: 100 ng/mL (≈ 248 nM)
[2]
  ED50: 2.7 µg/kg
[3]
  Gastric Antisecretory Activity, Relative Potency Ratio [PGE2 = 1.0]: 9

## O=C(O)/C=C/c1cccc2c1O[C@H]1C[C@@H](O)[C@H](/C=C/[C@@H](O)COc3ccccc3)[C@@H]21 [Compound 75, d-(3E)-16-phenoxy-2,5,6,7,17,18,19,20-octanor-3,4-didehydro-4,8-inter-m-phenylene PGI2]
[1]
  IC50: 29 ng/mL (≈ 71 nM)
[2]
  ED50: 0.89 µg/kg
[3]
  Gastric Antisecretory Activity, Relative Potency Ratio [PGE2 = 1.0]: 73

## C[C@@H](Oc1ccccc1)[C@H](O)/C=C/[C@@H]1[C@H]2c3cccc(/C=C/C(=O)O)c3O[C@H]2C[C@H]1O [Compound 77, d-(3E,16R)-16-phenoxy-2,5,6,7,18,19,20-heptanor-3,4-didehydro-4,8-inter-m-phenylene PGI2]
[1]
  IC50: 14 ng/mL (≈ 33.1 nM)
[2]
  ED50: 0.4 µg/kg
[3]
  Gastric Antisecretory Activity, Relative Potency Ratio [PGE2 = 1.0]: 83

## CC(C)(Oc1ccccc1)[C@H](O)/C=C/[C@@H]1[C@H]2c3cccc(/C=C/C(=O)O)c3O[C@H]2C[C@H]1O [Compound 79, d-(3E)-16-methyl-16-phenoxy-2,5,6,7,18,19,20-heptanor-3,4-didehydro-4,8-inter-m-phenylene PGI2]
[2]
  ED50: 0.5 µg/kg
[3]
  Gastric Antisecretory Activity, Relative Potency Ratio [PGE2 = 1.0]: 112

## CCCCC[C@H](O)/C=C/[C@@H]1[C@H]2C/C(=C/CCCC(=O)O)O[C@H]2C[C@H]1O [PGI2, Prostaglandin I2]
[4]
  stability: extremely unstable even in neutral aqueous solution
[5]
  duration of physiological activities in vivo: only short duration of physiological activities in vivo
  metabolism in vivo: metabolized quickly in vivo
